According to patent US12129258B2, “Diaryl macrocyclic compound and pharmaceutical composition, and use thereof” (PrimeGene (Beijing) Co., Ltd., priority 2018, dated 2024):
Read-outs that look alike come from different tables or passages of the source.

Assays:
TRKA [1] = target: T1, TRKA (Homo sapiens (Human), UniProt P04629); test: HTRF kinase activity assay, TRKA; format: biochemical; settings: 90 μM ATP
Description: The IC50 values of the compounds were calculated using XLFIT5 (IDBS) software.

TRKA [2] = target: T1, TRKA; test: Mobility shift assay, TRKA kinase; format: biochemical; settings: ATP 47.8 μM
From the text: (§1) The operation is described as follows:
(§2) Conversion %_Sample: conversion rate of sample;

TRKC = TRKC (Homo sapiens (Human), UniProt Q16288); test: Mobility shift assay, TRKC kinase; settings: read-out: TRKC IC50, ATP 44.4 μM
Sequence of TRKC (Q16288 other isoform, or with tags, fused parts or gaps isoform Q16288-3): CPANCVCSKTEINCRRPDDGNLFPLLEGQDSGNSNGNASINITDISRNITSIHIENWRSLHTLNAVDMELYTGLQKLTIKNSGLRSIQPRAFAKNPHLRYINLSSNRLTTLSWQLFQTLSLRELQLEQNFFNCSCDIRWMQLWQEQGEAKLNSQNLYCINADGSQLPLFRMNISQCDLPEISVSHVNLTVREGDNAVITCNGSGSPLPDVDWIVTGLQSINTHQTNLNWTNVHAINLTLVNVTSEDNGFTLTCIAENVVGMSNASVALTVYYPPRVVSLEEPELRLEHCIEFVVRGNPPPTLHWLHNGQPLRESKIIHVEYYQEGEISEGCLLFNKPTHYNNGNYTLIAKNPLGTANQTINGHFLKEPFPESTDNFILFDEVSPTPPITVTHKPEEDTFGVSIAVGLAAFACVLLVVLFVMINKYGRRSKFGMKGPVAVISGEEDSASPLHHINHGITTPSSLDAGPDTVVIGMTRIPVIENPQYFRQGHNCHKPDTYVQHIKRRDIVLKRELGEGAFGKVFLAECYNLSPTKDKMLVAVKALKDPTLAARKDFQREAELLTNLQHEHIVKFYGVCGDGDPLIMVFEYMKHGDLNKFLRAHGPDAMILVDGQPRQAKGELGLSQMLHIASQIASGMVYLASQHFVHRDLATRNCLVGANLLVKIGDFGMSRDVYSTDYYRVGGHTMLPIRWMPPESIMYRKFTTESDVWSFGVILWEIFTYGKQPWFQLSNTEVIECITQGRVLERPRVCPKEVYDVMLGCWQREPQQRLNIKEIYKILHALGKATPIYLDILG
Description: The inhibitory activity of compounds on TRKA, TRKB, TRKC and ROS1 kinase was analyzed with Mobility shift assay. The screening platform is MSA based microfluidic chip technology, which applies the basic concept of capillary electrophoresis to microfluidic environment. The substrate used in the experiment is a poly-peptide labeled with fluorescent. Under the catalysis of enzyme in the reaction system, the substrate is transformed into a product, with the charge changed accordingly. MSA technology could detect the substrate and the product with different charge separately.
The compound powder was dissolved in 100% DMSO (Sigma, Cat. D8418-1l) to prepare a 10 mM storage solution. […] The reaction was carried out at room temperature for 30 min/40 min/20 min/20 min respectively. After the reaction was terminated, the conversion rate was read by Caliper EZ Reader II.
Conversion %_Min: mean value of negative control, representing the conversion rate without enzyme activity;
Conversion %_Max: mean value of positive control, which represents the conversion rate reading without compound inhibition.
Taking the log value of concentration as X axis and the percentage inhibition rate as Y axis, the dose response curve was fitted by the analysis software GraphPad Prism 5, thus the IC50 value of each compound on enzyme activity inhibition was obtained.

ROS1 = ROS1 (Homo sapiens (Human), UniProt P08922); test: Mobility shift assay, ROS1 kinase; format: biochemical; settings: ATP 26.7 μM
Sequence of ROS1 (P08922 28-2347): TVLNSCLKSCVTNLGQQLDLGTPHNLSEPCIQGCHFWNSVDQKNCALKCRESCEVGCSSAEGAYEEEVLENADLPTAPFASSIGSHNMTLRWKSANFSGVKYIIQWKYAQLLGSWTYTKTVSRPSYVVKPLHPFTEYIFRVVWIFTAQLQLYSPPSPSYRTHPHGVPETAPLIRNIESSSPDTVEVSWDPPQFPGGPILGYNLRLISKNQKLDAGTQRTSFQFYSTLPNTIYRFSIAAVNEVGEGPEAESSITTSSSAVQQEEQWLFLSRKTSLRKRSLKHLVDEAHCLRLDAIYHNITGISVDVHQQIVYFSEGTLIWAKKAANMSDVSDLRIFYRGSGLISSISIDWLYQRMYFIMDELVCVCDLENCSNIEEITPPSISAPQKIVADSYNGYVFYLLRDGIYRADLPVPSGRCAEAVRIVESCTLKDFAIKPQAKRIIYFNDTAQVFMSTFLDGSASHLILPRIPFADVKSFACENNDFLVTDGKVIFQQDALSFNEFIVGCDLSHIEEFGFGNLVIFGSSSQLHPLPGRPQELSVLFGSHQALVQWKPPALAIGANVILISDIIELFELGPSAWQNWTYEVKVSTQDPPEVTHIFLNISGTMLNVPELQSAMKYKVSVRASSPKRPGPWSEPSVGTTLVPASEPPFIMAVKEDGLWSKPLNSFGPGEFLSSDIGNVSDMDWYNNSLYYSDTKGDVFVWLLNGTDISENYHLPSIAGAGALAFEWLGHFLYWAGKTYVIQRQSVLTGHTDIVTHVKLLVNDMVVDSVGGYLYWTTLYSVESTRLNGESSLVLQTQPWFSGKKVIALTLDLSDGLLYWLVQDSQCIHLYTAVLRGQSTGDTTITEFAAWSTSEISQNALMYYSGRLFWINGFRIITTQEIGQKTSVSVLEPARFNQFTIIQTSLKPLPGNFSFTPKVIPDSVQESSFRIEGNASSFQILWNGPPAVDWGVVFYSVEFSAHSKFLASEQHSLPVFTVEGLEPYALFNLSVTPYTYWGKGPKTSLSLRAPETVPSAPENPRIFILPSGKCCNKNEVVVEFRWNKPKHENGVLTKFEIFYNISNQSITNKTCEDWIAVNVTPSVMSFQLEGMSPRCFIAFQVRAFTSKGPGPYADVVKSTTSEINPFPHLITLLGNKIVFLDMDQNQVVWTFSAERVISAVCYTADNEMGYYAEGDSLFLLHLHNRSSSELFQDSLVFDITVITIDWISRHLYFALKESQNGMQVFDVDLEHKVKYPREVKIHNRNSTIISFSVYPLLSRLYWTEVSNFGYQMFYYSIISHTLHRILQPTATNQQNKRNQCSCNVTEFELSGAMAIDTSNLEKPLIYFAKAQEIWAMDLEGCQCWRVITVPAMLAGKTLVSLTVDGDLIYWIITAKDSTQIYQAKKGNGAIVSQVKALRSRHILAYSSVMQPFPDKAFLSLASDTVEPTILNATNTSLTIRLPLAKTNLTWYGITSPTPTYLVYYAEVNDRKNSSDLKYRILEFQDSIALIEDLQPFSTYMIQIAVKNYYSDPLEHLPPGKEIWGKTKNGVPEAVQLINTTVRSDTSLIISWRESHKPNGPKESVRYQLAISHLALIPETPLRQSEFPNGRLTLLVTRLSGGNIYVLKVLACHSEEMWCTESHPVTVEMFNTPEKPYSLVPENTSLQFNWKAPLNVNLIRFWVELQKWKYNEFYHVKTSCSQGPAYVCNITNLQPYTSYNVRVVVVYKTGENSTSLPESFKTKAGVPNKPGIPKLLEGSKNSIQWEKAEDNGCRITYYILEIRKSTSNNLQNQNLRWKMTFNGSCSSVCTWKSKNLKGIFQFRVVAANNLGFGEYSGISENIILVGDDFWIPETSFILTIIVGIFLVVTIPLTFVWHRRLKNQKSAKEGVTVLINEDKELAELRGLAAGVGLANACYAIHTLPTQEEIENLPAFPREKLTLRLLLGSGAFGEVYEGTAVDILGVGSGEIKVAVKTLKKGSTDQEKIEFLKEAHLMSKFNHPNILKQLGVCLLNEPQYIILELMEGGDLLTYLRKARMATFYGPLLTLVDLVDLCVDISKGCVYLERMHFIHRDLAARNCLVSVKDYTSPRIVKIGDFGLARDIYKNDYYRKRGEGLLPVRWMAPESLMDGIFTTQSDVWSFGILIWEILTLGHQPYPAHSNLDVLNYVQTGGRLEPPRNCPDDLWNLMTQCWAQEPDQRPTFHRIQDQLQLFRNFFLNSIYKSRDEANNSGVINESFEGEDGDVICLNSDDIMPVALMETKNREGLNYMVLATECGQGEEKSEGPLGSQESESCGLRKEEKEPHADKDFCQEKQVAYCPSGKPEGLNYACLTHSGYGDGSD
From the text: as §1, §2

TRKB = TRKB (Homo sapiens (Human), UniProt Q16620); test: Mobility shift assay, TRKB kinase; settings: read-out: TRKB IC50, ATP 71.2 μM
Sequence of TRKB (Q16620 32-822): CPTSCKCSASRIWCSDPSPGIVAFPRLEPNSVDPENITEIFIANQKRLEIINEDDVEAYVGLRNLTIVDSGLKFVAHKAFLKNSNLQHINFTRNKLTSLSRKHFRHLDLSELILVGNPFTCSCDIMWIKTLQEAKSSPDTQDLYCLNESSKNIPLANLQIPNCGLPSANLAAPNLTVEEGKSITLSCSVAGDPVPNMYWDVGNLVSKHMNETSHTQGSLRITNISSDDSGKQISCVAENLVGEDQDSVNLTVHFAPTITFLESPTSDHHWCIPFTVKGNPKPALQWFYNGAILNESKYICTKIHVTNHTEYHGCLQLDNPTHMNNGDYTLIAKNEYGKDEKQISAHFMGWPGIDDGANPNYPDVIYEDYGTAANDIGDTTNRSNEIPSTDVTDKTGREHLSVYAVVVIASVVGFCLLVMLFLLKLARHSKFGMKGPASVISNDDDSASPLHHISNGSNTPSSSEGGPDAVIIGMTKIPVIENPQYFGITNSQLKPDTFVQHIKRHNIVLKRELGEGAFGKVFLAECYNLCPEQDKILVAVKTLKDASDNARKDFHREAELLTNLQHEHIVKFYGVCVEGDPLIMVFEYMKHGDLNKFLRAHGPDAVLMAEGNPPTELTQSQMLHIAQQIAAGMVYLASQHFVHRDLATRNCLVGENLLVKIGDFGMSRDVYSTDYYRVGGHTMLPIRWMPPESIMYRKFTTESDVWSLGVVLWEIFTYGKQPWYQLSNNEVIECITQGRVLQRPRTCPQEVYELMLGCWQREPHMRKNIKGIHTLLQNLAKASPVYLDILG

Ba/F3 LMNA-NTRK1-G595R = test: Cell proliferation inhibition (CellTiter-Glo), Ba/F3 LMNA-NTRK1-G595R; format: cell-based; settings: Mus musculus, BaF3, 72 h, test batch marked *
From the text: (§3) 4. Inhibitory Effect of Compounds on the Proliferation of TRK Fusion and Mutant Stable Cell Lines (IC50)
(§4) Six cell lines including Ba/F3 LMNA-NTRK1-WT, Ba/F3 LMNA-NTRK1-G595R, Ba/F3 ETV6-NTRK2-WT, Ba/F3 ETV6-NTRK2-G639R, Ba/F3 ETV6-NTRK2-G639R and Ba/F3 ETV6-NTRK3-G623R were used in this experiment.
(§5) The operation is described briefly as follows:
(§6) The cells in logarithmic growth phase were harvested to ensure that the cell viability was above 90%. […] Then each well containing the cells of the 96-well plate was added the compound solutions, 3 wells for each compound solution, and continued to incubate for another 72 hrs. Then CellTiter-Glo® kit (Promega, Cat #G7572) was used to do the detection. First, the CTG reagent was melted and the cell plate was balanced to room temperature. The same volume of CTG solution was added into each well and vibrated on the shaker for 5 minutes to lyse the cells. The cell plate was kept at room temperature for 20 minutes to stabilize the luminescent signal. […] Cell survival rate (%)=(1umdrug−1ummedium)/(1umcell−lummedium)×100%

Ba/F3 LMNA-NTRK1-WT = test: Cell proliferation inhibition (CellTiter-Glo), Ba/F3 LMNA-NTRK1-WT; format: cell-based; settings: Mus musculus, BaF3, 72 h, test batch marked *
From the text: as §3, §4, §5, §6

Ba/F3 ETV6-NTRK2-G639R = test: Cell proliferation inhibition (CellTiter-Glo), Ba/F3 ETV6-NTRK2-G639R; format: cell-based; settings: Mus musculus, BaF3, 72 h, read-out: IC50 proliferation Ba/F3 ETV6-NTRK2-G639R
Description: as §3
(§7) Six cell lines including Ba/F3 LMNA-NTRK1-WT, Ba/F3 LMNA-NTRK1-G595R, Ba/F3 ETV6-NTRK2-WT, Ba/F3 ETV6-NTRK2-G639R, Ba/F3 ETV6-NTRK2-G639R and Ba/F3 ETV6-NTRK3-G623R were used in this experiment. For the six cell lines, the maximum test concentration of the compound was 1 μM, 1 μM, 10 μM, […], 1 μM and 10 μM, were 3.16-fold gradient diluted to obtain 9 samples.
as §5
(§8) The cells in logarithmic growth phase were harvested to ensure that the cell viability was above 90%. 3000 cell/well were seeded in 96-well plate (Corning, Cat #3603). The cells were incubated overnight with 5% CO2, 95% humidity at 37° C. Then each well containing the cells of the 96-well plate was added the compound solutions, 3 wells for each compound solution, and continued to incubate for another 72 hrs. Then CellTiter-Glo® kit (Promega, Cat #G7572) was used to do the detection. First, the CTG reagent was melted and the cell plate was balanced to room temperature. The same volume of CTG solution was added into each well and vibrated on the shaker for 5 minutes to lyse the cells. The cell plate was kept at room temperature for 20 minutes to stabilize the luminescent signal. The luminescent value was collected by SpectraMax microplate detector (MD, 2104-0010A). […] Cell survival rate (%)=(1umdrug−1ummedium)/(1umcell−lummedium)×100%

Ba/F3 ETV6-NTRK2-WT = test: Cell proliferation inhibition (CellTiter-Glo), Ba/F3 ETV6-NTRK2-WT; format: cell-based; settings: Mus musculus, BaF3, 72 h, read-out: IC50 proliferation Ba/F3 ETV6-NTRK2-WT
Description: as §3, §7, §5, §8

Ba/F3 ETV6-NTRK3-WT = test: Cell proliferation inhibition (CellTiter-Glo), Ba/F3 ETV6-NTRK3-WT; format: cell-based; settings: Mus musculus, BaF3, 72 h, read-out: IC50 proliferation Ba/F3 ETV6-NTRK3-WT
[3] = Pharmacokinetic analysis in rats; format: in vivo, Male SD rats; settings: male, SD, plasma; rat, PO, 5 mg/kg
Description: 6. Pharmacokinetic Analysis
Male SD rats were grouped, each group having 3 rats. […] Animals were fasted overnight from 10 hours before administration to 4 hours after administration. Blood samples were collected at 0.25, 0.5, 1, 2, 4, 8 and 24 hours after administration in the oral group and at 0.083, 0.25, 0.5, 1, 2, 4, 8 and 24 hours after injection in the intravenous group. After isoflurane anesthesia, 0.3 ml whole blood collected through the fundus vein plexus was put into the heparin anticoagulant tube. The sample was centrifuged at 4° C. at 4000 rpm for 5 min. The plasma was transferred into the centrifuge tube and stored at −80° C. until analysis. The extract from the plasma extracted by protein precipitation was analyzed by LC/MS/MS.

[4] = Blood-to-brain distribution in rats; format: in vivo; settings: male, SD, rat, 10 mg/kg single oral gavage
Description: 7. Blood-to-Brain Distribution
Male SD rats were grouped, each group having 12 rats. Each group was given the compound of Examples (10 mg/kg) by single oral gavage. The animals were fasted overnight from 10 hours before administration to 4 hours after administration. The rats were killed at 0.5, 1, 4 and 12 hours after administration, and blood and brain tissues were collected. The samples were centrifuged at 4000 rpm at 4° C. for 5 min and plasma was transferred into the centrifuge tube and stored at −80° C. until analysis. The extract from the plasma extracted by protein precipitation was analyzed by LC/MS/MS.

Ba/F3 LMNA-NTRK3-G623R = test: Cell proliferation inhibition (CellTiter-Glo), Ba/F3 LMNA-NTRK3-G623R; format: cell-based; settings: Mus musculus, BaF3, 72 h, read-out: IC50 proliferation Ba/F3 LMNA-NTRK3-G623R

T1 sequence (P04629 33-796): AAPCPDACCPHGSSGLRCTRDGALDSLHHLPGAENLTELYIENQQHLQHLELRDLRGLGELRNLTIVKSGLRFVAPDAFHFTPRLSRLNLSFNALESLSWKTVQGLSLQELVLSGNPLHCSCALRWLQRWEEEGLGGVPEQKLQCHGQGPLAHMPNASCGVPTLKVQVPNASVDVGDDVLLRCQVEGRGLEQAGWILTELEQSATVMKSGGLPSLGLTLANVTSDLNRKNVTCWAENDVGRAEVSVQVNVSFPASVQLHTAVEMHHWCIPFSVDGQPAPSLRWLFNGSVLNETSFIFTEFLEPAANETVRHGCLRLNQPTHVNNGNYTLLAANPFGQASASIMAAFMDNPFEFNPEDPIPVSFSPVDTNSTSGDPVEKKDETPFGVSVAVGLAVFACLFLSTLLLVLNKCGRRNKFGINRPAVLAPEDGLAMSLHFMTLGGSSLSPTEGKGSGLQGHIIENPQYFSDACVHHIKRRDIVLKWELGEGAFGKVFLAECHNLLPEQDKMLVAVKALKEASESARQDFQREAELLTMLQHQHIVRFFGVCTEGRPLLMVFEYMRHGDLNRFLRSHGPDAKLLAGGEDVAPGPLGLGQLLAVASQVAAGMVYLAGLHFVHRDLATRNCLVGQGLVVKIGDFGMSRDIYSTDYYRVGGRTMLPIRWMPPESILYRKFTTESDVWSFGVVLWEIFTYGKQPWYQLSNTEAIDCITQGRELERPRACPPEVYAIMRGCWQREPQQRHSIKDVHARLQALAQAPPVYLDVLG

IC50 (TRKA [2]) | IC50 (TRKC) | IC50 (ROS1) | IC50 (TRKB) | Compound | also measured
– | – | – | – | CCc1cc2c(cc1N1CCC(N3CCOCC3)CC1)C(C)(C)c1[nH]c3cc(C#N)ccc3c1C2=O [Alectinib] | IC50 (TRKA [1]): 60.4 nM
– | – | – | – | Cc1cc(Nc2ncc(Cl)c(Nc3ccccc3S(=O)(=O)C(C)C)n2)c(OC(C)C)cc1C1CCNCC1 [Ceritinib] | IC50 (TRKA [1]): 182 nM
0.75 nM | 1.2 nM | 0.78 nM | 1.2 nM | C[C@@H]1COc2ccc(F)cc2[C@@H](C)Nc2ccn3ncc(c3n2)C(=O)O1 [Example 6, (1^3E,1^4E,3R,7R)-4^5-fluoro-3,7-dimethyl-5,8-dioxa-2-aza-1(5,3)-pyrazolo[1,5-a]pyrimidina-4(1,2)-benzenacyclononaphan-9-one] | –
0.59 nM | 0.76 nM | 0.54 nM | 0.86 nM | C[C@H]1COC(=O)c2cnn3ccc(nc23)N[C@H](C)c2cc(F)ccc2S1 [Example 9, (1^3E,1^4E,3R,6S)-4^5-fluoro-3,6-dimethyl-8-oxa-5-thia-2-aza-1(5,3)-pyrazolo[1,5-a]pyrimidina-4(1,2)-benzenacyclononaphan-9-one] | –
0.62 nM | 0.73 nM | 1.9 nM | 0.9 nM | C[C@H]1Nc2ccn3ncc(c3n2)C(=O)OCCOc2ccc(F)cc21 [Example 13, (R,1^3E,1^4E)-4^5-fluoro-3-methyl-5,8-dioxa-2-aza-1(5,3)-pyrazolo[1,5-a]pyrimidina-4(1,2)-benzenacyclononaphan-9-one] | –
0.39 nM | 0.63 nM | 4.8 nM | 0.48 nM | C[C@@H]1c2cc(F)ccc2OCCOC(=O)c2cnn3ccc(nc23)N1C [Example 23, (R,1^3E,1^4E)-4^5-fluoro-2,3-dimethyl-5,8-dioxa-2-aza-1(5,3)-pyrazolo[1,5-a]pyrimidina-4(1,2)-benzenacyclononaphan-9-one] | –
0.56 nM | 0.75 nM | 0.29 nM | 0.6 nM | C[C@H]1Nc2ccn3ncc(c3n2)C(=O)OCC(F)(F)Oc2ccc(F)cc21 [Example 24, (R,1^3E,1^4E)-4^5,6,6-trifluoro-3-methyl-5,8-dioxa-2-aza-1(5,3)-pyrazolo[1,5-a]pyrimidina-4(1,2)-benzenacyclononaphan-9-one] | –
1.1 nM | 1.1 nM | 1.2 nM | 1.6 nM | C[C@H]1Nc2ccn3ncc(c3n2)C(=O)OCCSc2ccc(F)cc21 [Example 25, (R,1^3E,1^4E)-4^5-fluoro-3-methyl-8-oxa-5-thia-2-aza-1(5,3)-pyrazolo[1,5-a]pyrimidina-4(1,2)-benzenacyclononaphan-9-one] | –
– | – | – | – | O=C(Nc1cnn2ccc(N3CCC[C@@H]3c3cc(F)ccc3F)nc12)N1CC[C@H](O)C1 [LOXO-101, reference compound] | IC50 (Ba/F3 LMNA-NTRK1-G595R): 2170 nM; IC50 (Ba/F3 LMNA-NTRK1-WT): 47.4 nM; IC50 (Ba/F3 ETV6-NTRK2-G639R; 72 hrs, test batch marked *): 8.18 µM; IC50 (Ba/F3 ETV6-NTRK2-WT; 72 hrs, test batch marked *): 75.3 nM; IC50 (Ba/F3 ETV6-NTRK3-WT; 72 hrs, test batch marked *): 6.8 nM
– | – | – | – | C[C@H]1Oc2cc(cnc2N)-c2c(nn(C)c2C#N)CN(C)C(=O)c2ccc(F)cc21 [Lorlatinib] | IC50 (TRKA [1]): 6.2 nM
– | – | – | – | C[C@H]1CNC(=O)c2cnn3ccc(nc23)N[C@H](C)c2cc(F)ccc2O1 [TPX-0005, reference compound] | AUC(0-inf) [3]: 2950 ng·h/mL; Cmax [3]: 503 ng/mL; Tmax [3]: 1.33 h; half-life [3]: 213 min; Kp ([4]; brain/plasma, AUC0-inf ratio): 0.17; AUC(0-inf) ([4]; brain, read-out: AUC0-inf Brain): 2.35 µM·h; AUC(0-inf) ([4]; plasma, read-out: AUC0-inf Plasma): 13.9 µM·h; IC50 (Ba/F3 ETV6-NTRK2-G639R): 0.0866 µM; IC50 (Ba/F3 ETV6-NTRK2-WT): 2.5 nM; IC50 (Ba/F3 ETV6-NTRK3-WT): 0.8 nM; IC50 (Ba/F3 LMNA-NTRK3-G623R): 9 nM
